Reference: patent US8614254B2, “Methods and compositions for treating thalamocortical dysrhythmia” (New York University, priority 2007, dated 2013)

How the values were obtained:
[1] = system: low threshold activated Cav3 calcium currents (Cav3.1); experiment: Whole-cell voltage-clamp patch recording of low threshold activated calcium currents in ventrobasal thalamic neurons of brain slices; type: cell-based, rodents (Long-Evans rats, Harley guinea pigs); settings: for Cav3 peak currents (I-V curve): FIG. 2B
[2] = system: high voltage activated calcium currents; experiment: Whole-cell voltage-clamp patch recording, slow component when low and high voltage activated calcium currents are open; type: cell-based, rodents (Long-Evans rats, Harley guinea pigs); settings: 10 μM; −10 mV, both low and high voltage activated calcium currents open; FIG. 1B
[3] = system: thalamic neurons (low threshold spikes, low frequency oscillations); type: cell-based
EEG frequency profile = experiment: EEG recording with Fast Fourier transform frequency analysis in wild type and alpha-1A knockout mice; type: in vivo, mouse
Procedure: Alpha1A knockout mice, which have an enhanced Cav3 calcium channel activity, develop progressive neurological symptoms resembling Thalamo-cortical Dysrhythmia characterized specifically by ataxia and dystonia, before dying, around four weeks after birth (Jun et al. (1999) Proc. Natl. Acad. Sci. USA. 96(26):15245-50).
When a Fast Fourier transform analysis is performed in two segments of 1 second each (FIG. 7A, segments a and b) from the same wild type trace, a wide range of frequencies is observed. Importantly, the presence of high frequencies in the range of gamma band is observed (FIG. 7A, red arrows). In contrast, an alpha-1A knockout mouse presents a totally different EEG recoding.
The administration of 1-octanol (Sinton et al., (1989) Pflügers Archiv 414: 31-36) in wild types versus knockout mice allows the quantification of the effects of such a drug in the high and low frequencies in the EEG. Since knockout mice only present low frequencies, a dose-response curve of 1-octanol can be easily prepared. Also, an augmentation in the ratio of high/low frequencies is expected for the wild types treated with 1-octanol.
Analysis of the frequency components plotted in blue bars show a decrease in the low frequencies (0-15 Hz) and an increase in hi frequencies (30-45 Hz) consistent with the fact that Cav3 channels are responsible for low frequencies and their block produces an increase in high frequency.

[4] = system: thalamic neurons (low threshold spike); type: cell-based, mouse
[5] = system: thalamic neurons (high-frequency 40 Hz subthreshold oscillation); type: cell-based, mouse
[6] = 50 μM, wild-type mouse, TTX 2 μM
[7] = wild-type mice, i.p., 0.2 mg/kg, FIG. 7D

For CCCCCCCCO [1-octanol], the “block of peak fast activated Cav3.1 calcium current (ICa) amplitude” value ([1]; 10 μM, holding level −30 mV where only low voltage activated calcium currents can be open, FIG. 1A) was “about 30%”, the “specificity of block of low threshold activated Cav3-type currents” value ([1]; ventrobasal thalamic neurons, conclusion from FIG. 1A and 1B) was “specifically block” and the “slow component that remains open at the end of the depolarized pulse” value [2] was “leaving unchanged”. The “peak of low threshold spikes activated using ramps of current” value ([3]; 50 μM, FIG. 4A and 4B) was “further decreases”, the membrane resistance ([3]; after blocking Cav3 calcium currents, same amplitude current pulse) was “increments” and the “effect on the low threshold spikes” value ([3]; current clamp, FIG. 4A and 4B) was “concentration-dependent”. The “ratio of high/low frequencies in the EEG” value (EEG frequency profile; wild types treated, expected) was “augmentation”.
For CCCCCCC(C)O (centres unmarked) [2-octanol], the “Cav3 peak currents (I-V curve)” value ([1]; 10 μM) was “partially reduced”, the “Cav3 peak currents (I-V curve)” value ([1]; 100 μM) was “almost abolished” and the “low threshold activated Cav3 calcium currents” value ([1]; 100 μM, voltage clamp, high Cs/QX314 intracellular solution) was “completely abolished”. For the same compound, the “Cav3 calcium currents peak with increasing concentrations” value ([1]; holding −70 mV, steps to −60, −30, −20 and −10 mV, FIG. 2A) was “progressive reduction”, the “thalamic low frequency oscillatory activity (low threshold spikes firing at 2 Hz)” value ([3]; 10 μM, five min. of perfusion, FIG. 3A) was “complete abolishment” and the “reversibility of the abolishment of oscillatory activity” value ([3]; after 40 min. of washout) was “partially reversible”. For the same compound, the low threshold spike ([3]; after TTX removal from the external solution, FIG. 5A and 5B) was “block” and the “frequency of action potentials of the thalamic neurons” value ([3]; after TTX removal, after block of low threshold spike, increment in input resistance) was “notably increased”.
CCCCCCCCO [octanol] was tested, and the “low threshold activated Cav3 calcium currents of neurons of the thalamic Ventrobasal nucleus” value ([1]; clinical concentrations at micromolar level, summary of the examples) was “significantly reversibly block”, the “rebound low threshold spike” value [4, 6] was “abolished” and the low threshold spike ([4]; alpha1A-KO mouse, TTX, FIG. 6B) was “blocked”. For the same compound, the “40 Hz oscillations on depolarizing square pulses” value [5, 6] was “are observed”, the “high-frequency 40 Hz oscillations” value ([5]; alpha1A-KO mouse, before or after application) was “no high-frequency 40 Hz oscillations are present” and the “high frequency oscillations in the thalamic neurons” value ([5]; summary of the examples) was “does not appear to affect”. For the same compound, the “EEG hi frequencies (30-45 Hz)” value (EEG frequency profile; [7]) was “increase” and the “EEG low frequencies (0-15 Hz)” value (EEG frequency profile; [7]) was “decrease”.
